Source: ChEMBL document CHEMBL1126094, “Iodinated tomoxetine derivatives as selective ligands for serotonin and norepinephrine uptake sites” (J Med Chem, 1992)
Structures can show the parent of a compound that is named as a salt.

Tests used:
[1] = species: Rattus norvegicus; assay: Binding affinity against DA uptake site, using [125I]beta-CIT as radioligand in rat striatal membrane; assay type: functional, Striatum
[2] = species: Rattus norvegicus; assay: Binding affinity against 5-HT uptake site, using [3H]citalopram as radioligand in rat cortical membrane; assay type: functional
[3] = species: Rattus norvegicus; assay: Binding affinity against NE uptake site, using [3H]nisoxetine as radioligand in rat striatal membrane; assay type: functional, Striatum

SMILES	Ki [1]	Ki [2]	Ki [3]
CNCC[C@H](Oc1ccc(C)cc1I)c1ccccc1	410 nM	5.73 nM	154 nM
CNCC[C@H](Oc1ccc(I)cc1C)c1ccccc1	636 nM	13.9 nM	1160 nM
CNCC[C@@H](Oc1ccccc1I)c1ccccc1		17.1 nM	0.24 nM
CNCC[C@H](Oc1cccc(I)c1)c1ccccc1	208 nM	4 nM	1.8 nM
CNCC[C@@H](Oc1ccc(I)c(C)c1)c1ccccc1	220 nM	0.69 nM	128 nM
CNCC[C@H](Oc1ccccc1I)c1ccccc1		13.1 nM	9.35 nM
CNCC[C@H](Oc1ccc(I)cc1)c1ccccc1		0.8 nM	245 nM
CNCC[C@@H](Oc1ccccc1C)c1ccccc1 [ATOMOXETINE HYDROCHLORIDE]		25.1 nM	

More lines, now with the values ahead:

Ki [1]	Ki [2]	Ki [3]	SMILES
486 nM	14.4 nM	1.4 nM	CNCC[C@@H](Oc1cccc(I)c1)c1ccccc1
	1.27 nM	3.21 nM	CNCC[C@@H](Oc1ccc(I)cc1)c1ccccc1
845 nM	0.65 nM	69 nM	CNCC[C@@H](Oc1ccc(I)cc1C)c1ccccc1
11300 nM	5.18 nM	3.4 nM	CNCC[C@@H](Oc1ccc(C)cc1I)c1ccccc1
200 nM	0.3 nM	351 nM	CNCC[C@H](Oc1ccc(I)c(C)c1)c1ccccc1
